This is an account of results in paper PMC3830869, “Total Chemical Synthesis of a Heterodimeric Interchain Bis-Lactam-Linked Peptide: Application to an Analogue of Human Insulin-Like Peptide 3” (International Journal of Peptides, 2013).

Experiment [1] addresses T1, RXFP2 (Homo sapiens, UniProt Q8WXD0). As to the kind of experiment: RXFP2 competition binding assay with europium-labelled INSL3. Also on record: expressed in transfected cells; host or cells: HEK-293T. As to conditions: competition with 0.3 nM europium-labelled INSL3, unlabelled peptide 0.01 nM–1 μM; HEK-293T cells stably transfected with RXFP2; mean ± SEM; n in parentheses in Table 1 (6 for human INSL3, 3 for the analogues); read-out: Receptor binding pKi (converted).

The target in experiment [2] is T1, RXFP2. Also on record: expressed in transfected cells. As to conditions: data for entry 2 taken from the reference; n = 3; ref [32]; cited from earlier work. The text has this: Table 1 Receptor binding affinities (pKi) of INSL3 and analogues. Data for entry 2 taken from reference. | column: Receptor binding pKi (n=) || Moreover, to date, there have been no reports of a chemical synthesis of a bis-lactam cross-linked heterodimeric peptide. Consequently, in this study, we undertook an examination of the feasibility of a total step-wise synthesis of, first, a monolactam A24-B22 analogue and, subsequently, a bis-lactam A11-B10/A24-B22 analogue of INSL3. Our novel strategy involved the continuous assembly of both the A- and B-chains, plus the lactam bridges on the same solid support, that is, without using preformed peptide fragments. In order to simplify assembly, the C-terminus of the A-chain was truncated at p ... || Both the ΔA25/26 human INSL3 monolactam A24-B22 and bis-lactam A11-B10/A24-B22 analogues were tested in the RXFP2 competition binding assay (Table 1).

Numbered stars: 1 amine (or outer) side, 2 acyl side, 3 side chain; on linkers, the order of the positions; unused ones are H or OH. Bridge positions count the residues as written; N and C are the ends. Square brackets hold non-standard residues; d marks the D form. Ends that are not written are not given here. I, II: the chains in the order shown. βAsp = O=C(O)[C@H](CC(=O)[*:2])N[*:1]; Dap = NC[C@H](N)C(=O)O

T1 sequence (Q8WXD0 whole entry): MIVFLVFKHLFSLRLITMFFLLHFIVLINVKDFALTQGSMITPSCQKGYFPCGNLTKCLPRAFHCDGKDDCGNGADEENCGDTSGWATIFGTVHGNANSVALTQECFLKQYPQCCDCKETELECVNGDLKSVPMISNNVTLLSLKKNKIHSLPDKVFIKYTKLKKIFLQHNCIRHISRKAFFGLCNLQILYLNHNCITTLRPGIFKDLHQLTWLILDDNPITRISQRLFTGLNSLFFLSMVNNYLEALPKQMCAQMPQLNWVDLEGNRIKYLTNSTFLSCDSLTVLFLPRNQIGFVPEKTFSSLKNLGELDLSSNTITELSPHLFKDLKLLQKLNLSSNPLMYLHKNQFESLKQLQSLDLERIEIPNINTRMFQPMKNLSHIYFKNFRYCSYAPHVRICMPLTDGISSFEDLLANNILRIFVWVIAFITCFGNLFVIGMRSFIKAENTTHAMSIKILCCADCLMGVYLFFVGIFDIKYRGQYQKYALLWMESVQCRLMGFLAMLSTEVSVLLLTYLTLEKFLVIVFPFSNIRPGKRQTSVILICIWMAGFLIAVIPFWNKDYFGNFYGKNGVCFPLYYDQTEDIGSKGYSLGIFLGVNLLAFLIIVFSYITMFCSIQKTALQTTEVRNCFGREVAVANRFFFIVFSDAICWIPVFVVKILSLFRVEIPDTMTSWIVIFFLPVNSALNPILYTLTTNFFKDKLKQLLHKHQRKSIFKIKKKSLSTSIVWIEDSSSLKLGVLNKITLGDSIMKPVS

Turning to “I: PTPEMREKLCGHHFVRALVRVCGGPRWSTEA / II: AAATNPARYCCLSGCTQQDLLTLCPY (disulfide I:10-II:11, I:22-II:24, II:10-II:15) [Human INSL3]”, the Ki in experiment [1] was 0.575 nM. For the substance “I: PTPEMREKLCGHHFVRALVRV[Dap]GGPRWSTEA / II: AAATNPARYCCLSGCTQQDLLTL[βAsp] (disulfide I:10-II:11, II:10-II:15; amide I:22-II:C) [ΔA25/26 human INSL3 mono-lactam A24-B22]”, in experiment [1], the Ki is 4.47 nM. As for “I: PTPEMREKL[Dap]GHHFVRALVRV[Dap]GGPRWSTEA / II: AAATNPARYCDLSGCTQQDLLTL[βAsp] (amide I:10-II:11, I:22-II:C; disulfide II:10-II:15)”, the Ki in experiment [1] is 12 nM. With “ΔA25/26 human INSL3: INSL3 analogue, C-terminus of the A-chain truncated at position 24, omitting Pro A25 and Tyr A26 (chain 1 AAATNPARYCCLSGCTQQDLLTLC; chain 2 PTPEMREKLCGHHFVRALVRVCGGPRWSTEA; Disulfides A10-A15 (intra-A), A11-B10 and A24-B22 (interchain); A-chain is A1-A24 (Pro A25 and Tyr A26 omitted); B-chain is 31 residues ending in Ala; Ch)”, the “Receptor binding pKi” value in experiment [2] is 8.59 ± 0.06 (3).
